Columns and labels:
Format in all cases: cell-based
[1] = system: Acinetobacter baumannii isolates; test: Antimicrobial susceptibility test, disc diffusion method (CLSI M100-S24); design: key to Inhibition zone: “NZ” indicated that no zone of inhibition was observed; conditions: disc diffusion
Outline: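 Disc diffusion per CLSI M100-S24 on 33 MDR clinical A. baumannii isolates from burn wards; 0.5 McFarland inoculum swabbed onto Mueller-Hinton agar, incubated aerobically 35-37° C, 18-20 h. Zone diameters measured to nearest mm and categorized S/I/R by CLSI breakpoints.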

[2] = system: Acinetobacter baumannii isolates and Acinetobacter baumannii ATCC BAA 747; test: MIC determination by broth dilution method (CLSI M07-A9)
Experimental: (§1) Minimum Inhibitory Concentration (MIC) is the lowest concentration of an antimicrobial agent that prevents visible growth of a microorganism in an agar or broth dilution susceptibility test. MIC of thymoquinone was determined by the broth dilution method against 33 MDR Acinetobacter baumannii strains and standard sensitive culture collection strain of Acinetobacter baumannii and Pseudomonas aeruginosa. The MIC of gentamicin was deter lined by broth dilution method against six MDR Acinetobacter baumannii strains and standard sensitive culture collection strains of Acinetobacter baumannii and Pseudomonas aeruginosa. MIC testing was performed according to the recommendations and guidelines of Clinical Laboratory Standard Institutes (CLSI M07-A9; 2012). Clinical and Laboratory Standards Institute (CLSI), “Methods for Dilution Antimicrobial Susceptibility Tests for Bacteria That Grow Aerobically; Approved Standard,” Document M07-A9, Clinical and Laboratory Standards Institute (CLSI), Wayne, Pa., USA, 2012.
(§2) Twenty-one grams of Mueller-Hinton Broth (MHB) was suspended in 1 Liter distilled water and then boiled to dissolve the powder completely. The medium was sterilized by autoclaving at 121° C. for 15 min. After autoclaving, the medium was cooled to room temperature before use or stored in the fridge until used.
(§3) Thymoquinone was weighed and dissolved in Dimethyl sulfoxide (DMSO) to produce a thymoquinone stock solution with a concentration of 5,120 μg/ml. Gentamicin sulfate was weighed and dissolved in water to produce a gentamicin sulfate stock solution with a concentration of 5,120 μg/ml, equivalent to gentamicin base.
(§4) Dilutions of thymoquinone and gentamicin sulfate stock solutions were prepared volumetrically in the MHB as follows:
(§5) One mL of original stock solution (5,120 μg/ml) was added to 9 ml sterile MHB to give the working first dilution (512 μg/mL). 12 sterile 7 mL PJ tubes were arranged in a rack in a row. Each tube contained one mL sterile MHB. Ten tubes were labeled as 128 μg/mL, 64 μg/mL, 32 μg/mL, 16 μg/mL, 8 μg/mL, 4 μg/mL, 2 μg/mL, 1 μg/mL, 0.5 μg/mL and 0.25 μg/mL. The eleventh and twelfth tubes were labeled as positive and negative control, respectively.
(§6) The working dilution (512 μg/mL) was serially diluted to give two-fold dilutions. One mL of the working dilution (512 μg/mL) was dispensed in the first tube (labeled as 128 μg/mL) to give a concentration of 256 μg drug/mL MHB. One mL of the first tube was added to the second tube (labeled as 64 μg/mL) to give a concentration of 128 μg drug/mL MHB. One mL of the second tube was transferred to the third tube (labeled as 32 μg/mL) to give a concentration of 64 μg drug/mL MHB. One mL of the third tube was added to the fourth tube (labeled as 16 μg/mL) to give a concentration of 32 μg drug/mL MHB. One mL of the fourth tube was dispensed in the fifth tube (labeled as 8 μg/mL) to give a concentration of 16 μg drug/mL MHB. One mL of the fifth tube was dispensed in the sixth tube (labeled as 4 μg/mL) to give a concentration of 8 μg drug/mL MHB. One mL of the sixth tube was added to the seventh tube (labeled as 2 μg/mL) to give a concentration of 4 μg drug/mL MHB. One mL of the seventh tube was added to the eighth tube (labeled as 1 μg/mL) to give a concentration of 2 μg drug/mL MHB. One mL of the eighth tube was transferred to the ninth tube (labeled as 0.5 μg/mL) to give a concentration of 1 μg drug/mL MHB. One mL of the ninth tube was transferred to the tenth tube (labeled as 0.25 μg/mL) to give a concentration of 0.5 μg drug/mL MHB. The contents were mixed thoroughly by pipetting up and down three times. One mL of the content of the tenth tube was discarded.
(§7) The inoculum suspensions (at 1-2×10^8 CFU/mL) were diluted 1:100 in MHB to obtain 1×10^6 CFU/mL. One mL of the diluted inoculum suspension (1×10^6 CFU/mL) was transferred to each tube except tube 12.
(§8) All inoculated tubes were incubated for 16-20 hours at 37° C. aerobically. […]

[3] = system: Pseudomonas aeruginosa ATCC 27853; test: as above; conditions: P. aeruginosa ATCC 27853
Experimental: as §1, §2, §3, §4, §5, §6, §7, §8

Q: For `CN(C)[C@@H]1C(O)=C(C(N)=O)C(=O)[C@@]2(O)C(O)=C3C(=O)c4c(O)cccc4[C@@](C)(O)[C@H]3C[C@@H]12` [TET, Tetracycline], which Inhibition zone ([1]; isolate AB1) is on record?
A: NZ

Q: And the Inhibition zone ([1]; isolate AB2)?
A: 22 mm

Q: And the Inhibition zone ([1]; isolate AB3)?
A: 22 mm

Q: What about the Inhibition zone ([1]; isolate AB4) of the same compound?
A: 21 mm

Q: What about the Inhibition zone ([1]; isolate AB5) of the same compound?
A: NZ

Q: And the Inhibition zone ([1]; isolate AB6)?
A: NZ

Q: And the Inhibition zone ([1]; isolate AB7)?
A: 21 mm

Q: What about the Inhibition zone ([1]; isolate AB8) of the same compound?
A: 26 mm

Q: And the Inhibition zone ([1]; isolate AB9)?
A: 23 mm

Q: And the Inhibition zone ([1]; isolate AB10)?
A: NZ

Q: What about the Inhibition zone ([1]; isolate AB11) of the same compound?
A: NZ

Q: What about the Inhibition zone ([1]; isolate AB12) of the same compound?
A: NZ

Q: And the Inhibition zone ([1]; isolate AB13)?
A: NZ

Q: What about the Inhibition zone ([1]; isolate AB14) of the same compound?
A: 24 mm

Q: And the Inhibition zone ([1]; isolate AB15)?
A: 19 mm

Q: What about the Inhibition zone ([1]; isolate AB16) of the same compound?
A: NZ

Q: What about the Inhibition zone ([1]; isolate AB17) of the same compound?
A: 21 mm

Q: And the Inhibition zone ([1]; isolate AB18)?
A: 20 mm

Q: What about the Inhibition zone ([1]; isolate AB19) of the same compound?
A: 17 mm

Q: What about the Inhibition zone ([1]; isolate AB20) of the same compound?
A: 28 mm

Q: And the Inhibition zone ([1]; isolate AB21)?
A: 19 mm

Q: And the Inhibition zone ([1]; isolate AB22)?
A: 20 mm

Q: And the Inhibition zone ([1]; isolate AB23)?
A: 23 mm

Q: What about the Inhibition zone ([1]; isolate AB24) of the same compound?
A: 19 mm

Q: And the Inhibition zone ([1]; isolate AB25)?
A: 25 mm

Q: And the Inhibition zone ([1]; isolate AB26)?
A: NZ

Q: What about the Inhibition zone ([1]; isolate AB27) of the same compound?
A: 8 mm

Q: And the Inhibition zone ([1]; isolate AB28)?
A: 20 mm

Q: What about the Inhibition zone ([1]; isolate AB29) of the same compound?
A: 19 mm

Q: And the Inhibition zone ([1]; isolate AB30)?
A: 20 mm

Q: What about the Inhibition zone ([1]; isolate AB31) of the same compound?
A: NZ

Q: And the Inhibition zone ([1]; isolate AB32)?
A: 28 mm

Q: And the Inhibition zone ([1]; isolate AB33)?
A: 24 mm

Q: For Gentamicin, which Inhibition zone ([1]; isolate AB1) is on record?
A: 24 mm

Q: What about the Inhibition zone ([1]; isolate AB2) of the same compound?
A: 20 mm

Q: What about the Inhibition zone ([1]; isolate AB3) of the same compound?
A: 24 mm

Q: And the Inhibition zone ([1]; isolate AB4)?
A: 22 mm

Q: What about the Inhibition zone ([1]; isolate AB5) of the same compound?
A: 15 mm

Q: And the Inhibition zone ([1]; isolate AB6)?
A: 26 mm

Q: And the Inhibition zone ([1]; isolate AB7)?
A: NZ

Q: And the Inhibition zone ([1]; isolate AB8)?
A: NZ

Q: And the Inhibition zone ([1]; isolate AB9)?
A: 21 mm

Q: And the Inhibition zone ([1]; isolate AB10)?
A: NZ

Q: What about the Inhibition zone ([1]; isolate AB11) of the same compound?
A: NZ

Q: What about the Inhibition zone ([1]; isolate AB12) of the same compound?
A: 12 mm

Q: And the Inhibition zone ([1]; isolate AB13)?
A: NZ

Q: And the Inhibition zone ([1]; isolate AB14)?
A: NZ

Q: What about the Inhibition zone ([1]; isolate AB15) of the same compound?
A: 20 mm

Q: And the Inhibition zone ([1]; isolate AB16)?
A: 18 mm

Q: And the Inhibition zone ([1]; isolate AB17)?
A: 24 mm

Q: What about the Inhibition zone ([1]; isolate AB18) of the same compound?
A: 17 mm

Q: And the Inhibition zone ([1]; isolate AB19)?
A: 20 mm

Q: What about the Inhibition zone ([1]; isolate AB20) of the same compound?
A: NZ

Q: And the Inhibition zone ([1]; isolate AB21)?
A: 17 mm

Q: What about the Inhibition zone ([1]; isolate AB22) of the same compound?
A: NZ

Q: What about the Inhibition zone ([1]; isolate AB23) of the same compound?
A: NZ

Q: What about the Inhibition zone ([1]; isolate AB24) of the same compound?
A: 19 mm

Q: And the Inhibition zone ([1]; isolate AB25)?
A: 19 mm

Q: And the Inhibition zone ([1]; isolate AB26)?
A: NZ

Q: What about the Inhibition zone ([1]; isolate AB27) of the same compound?
A: 8 mm

Q: And the Inhibition zone ([1]; isolate AB28)?
A: 20 mm

Q: And the Inhibition zone ([1]; isolate AB29)?
A: 20 mm

Q: What about the Inhibition zone ([1]; isolate AB30) of the same compound?
A: 20 mm

Q: And the Inhibition zone ([1]; isolate AB31)?
A: 8 mm

Q: And the Inhibition zone ([1]; isolate AB32)?
A: NZ

Q: What about the Inhibition zone ([1]; isolate AB33) of the same compound?
A: 20 mm

Q: With Gentamicin sulfate as the compound, how does the MIC ([2]; A. baumannii ATCC BAA 747 (standard sensitive strain)) read?
A: 1 µg/mL

Q: And the MIC ([2]; isolate AB7)?
A: 32 µg/mL

Q: What about the MIC ([2]; isolate AB8) of the same compound?
A: 64 µg/mL

Q: And the MIC ([2]; isolate AB10)?
A: 32 µg/mL

Q: What about the MIC ([2]; isolate AB11) of the same compound?
A: 32 µg/mL

Q: What about the MIC ([2]; isolate AB12) of the same compound?
A: 32 µg/mL

Q: What about the MIC ([2]; isolate AB13) of the same compound?
A: 32 µg/mL

Q: What about the MIC [3] of the same compound?
A: ≤2 µg/mL

From patent US11617726B2, “Method for preventing, treating, or ameliorating a microbial infection” (priority 2018, dated 2023)
